{"source": "patent US8802597B2", "about": "“Herbicidal pyrimidines” (E I du Pont de Nemours and Company, priority 2003, dated 2014)", "experiment_in_all_cases": "Test C pre/postemergence", "assay_type_in_all_cases": "in vivo", "key": {"[1]": {"test_system": "johnsongrass (Sorghum halepense)", "settings": "Sorghum halepense, pre-emergence, Preemergence, read-out: Plant response rating, Johnsongrass", "how_it_was_run": "(§1)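 Greenhouse herbicide screen, visual readout. Compound in solvent/surfactant applied preemergence at planting or postemergence to 1- to 4-leaf plants; assessed at 12–14 days on a 0–100 control scale.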"}, "[2]": {"test_system": "kochia (Kochia scoparia)", "settings": "Bassia scoparia; for pest or weed control at 31 g/ha: 31 g ai/ha; for pest or weed control at 62 g/ha: 62 g ai/ha; for pest or weed control at 125 g/ha: 125 g ai/ha; for pest or weed control at 250 g/ha: 250 g ai/ha", "how_it_was_run": "as §1"}, "[3]": {"test_system": "lambsquarters (Chenopodium album)", "settings": "Chenopodium album; for pest or weed control at 31 g/ha: 31 g ai/ha; for pest or weed control at 62 g/ha: 62 g ai/ha; for pest or weed control at 125 g/ha: 125 g ai/ha; for pest or weed control at 250 g/ha: 250 g ai/ha", "how_it_was_run": "as §1"}, "[4]": {"test_system": "pigweed (Amaranthus retroflexus)", "settings": "Amaranthus retroflexus; for pest or weed control at 31 g/ha: 31 g ai/ha; for pest or weed control at 62 g/ha: 62 g ai/ha; for pest or weed control at 125 g/ha: 125 g ai/ha; for pest or weed control at 250 g/ha: 250 g ai/ha", "how_it_was_run": "as §1"}, "[5]": {"test_system": "soybean (Glycine max)", "settings": "Glycine max; for plant injury at 31 g/ha: 31 g ai/ha; for plant injury at 62 g/ha: 62 g ai/ha; for plant injury at 125 g/ha: 125 g ai/ha; for plant injury at 250 g/ha: 250 g ai/ha", "how_it_was_run": "as §1"}, "[6]": {"test_system": "velvetleaf (Abutilon theophrasti)", "settings": "Abutilon theophrasti; for pest or weed control at 31 g/ha: 31 g ai/ha; for pest or weed control at 62 g/ha: 62 g ai/ha; for pest or weed control at 125 g/ha: 125 g ai/ha; for pest or weed control at 250 g/ha: 250 g ai/ha", "how_it_was_run": "as §1"}, "[7]": {"settings": "post-emergence, Postemergence, scale 0 to 100 (0 no effect, 100 complete control), read-out: Kochia plant response rating"}, "[8]": {"settings": "pre-emergence, Preemergence, scale 0 to 100, 0 no effect, 100 complete control, read-out: Plant response rating, Kochia"}, "[9]": {"settings": "pre-emergence, Preemergence, scale 0 to 100, read-out: Plant response rating, Kochia"}, "[10]": {"settings": "post-emergence, Postemergence, scale 0 to 100 (0 no effect, 100 complete control), read-out: Lambsquarters plant response rating"}, "[11]": {"settings": "pre-emergence, Preemergence, scale 0 to 100, 0 no effect, 100 complete control, read-out: Plant response rating, Lambsquarters"}, "[12]": {"settings": "pre-emergence, Preemergence, scale 0 to 100, read-out: Plant response rating, Lambsquarters"}, "[13]": {"settings": "post-emergence, Postemergence, scale 0 to 100 (0 no effect, 100 complete control), read-out: Pigweed plant response rating"}, "[14]": {"settings": "pre-emergence, Preemergence, scale 0 to 100, 0 no effect, 100 complete control, read-out: Plant response rating, Pigweed"}, "[15]": {"settings": "pre-emergence, Preemergence, scale 0 to 100, read-out: Plant response rating, Pigweed"}, "[16]": {"settings": "post-emergence, Postemergence, scale 0 to 100 (0 no effect, 100 complete control), read-out: Soybean plant response rating"}, "[17]": {"settings": "pre-emergence, Preemergence, scale 0 to 100, 0 no effect, 100 complete control, read-out: Plant response rating, Soybean"}, "[18]": {"settings": "pre-emergence, Preemergence, scale 0 to 100, read-out: Plant response rating, Soybean"}, "[19]": {"settings": "post-emergence, Postemergence, scale 0 to 100 (0 no effect, 100 complete control), read-out: Velvetleaf plant response rating"}, "[20]": {"settings": "pre-emergence, Preemergence, scale 0 to 100, 0 no effect, 100 complete control, read-out: Plant response rating, Velvetleaf"}, "[21]": {"settings": "pre-emergence, Preemergence, scale 0 to 100, read-out: Plant response rating, Velvetleaf"}}, "note": "Read-outs that look alike come from different tables or passages of the source."}
{"smiles": "COC(=O)c1nc(C(C)C)nc(N)c1Br", "note": "[Compound 3]", "values": [{"measurement": "pest or weed control at 31 g/ha", "setting": "[1]; 31 g ai/ha, scale 0 to 100, 0 no effect, 100 complete control", "value": 0, "unit": "%"}, {"measurement": "pest or weed control at 62 g/ha", "setting": "[1]; 62 g ai/ha, scale 0 to 100, 0 no effect, 100 complete control", "value": 0, "unit": "%"}, {"measurement": "pest or weed control at 125 g/ha", "setting": "[1]; 125 g ai/ha, scale 0 to 100", "value": 0, "unit": "%"}, {"measurement": "pest or weed control at 250 g/ha", "setting": "[1]; 250 g ai/ha, scale 0 to 100", "value": 0, "unit": "%"}, {"measurement": "pest or weed control at 31 g/ha", "setting": "[2]; post-emergence, Postemergence, read-out: Plant response rating (scale of 0 to 100), Kochia", "value": 20, "unit": "%"}, {"measurement": "pest or weed control at 62 g/ha", "setting": "[2]; [7]", "value": 65, "unit": "%"}, {"measurement": "pest or weed control at 125 g/ha", "setting": "[2]; [7]", "value": 90, "unit": "%"}, {"measurement": "pest or weed control at 250 g/ha", "setting": "[2]; post-emergence, Postemergence, scale 0 to 100, read-out: Plant response rating, Kochia", "value": 100, "unit": "%"}, {"measurement": "pest or weed control at 31 g/ha", "setting": "[2]; [8]", "value": 0, "unit": "%"}, {"measurement": "pest or weed control at 62 g/ha", "setting": "[2]; [8]", "value": 0, "unit": "%"}, {"measurement": "pest or weed control at 125 g/ha", "setting": "[2]; [9]", "value": 20, "unit": "%"}, {"measurement": "pest or weed control at 250 g/ha", "setting": "[2]; [9]", "value": 30, "unit": "%"}, {"measurement": "pest or weed control at 31 g/ha", "setting": "[3]; post-emergence, Postemergence, read-out: Plant response rating (scale of 0 to 100), Lambsquarters", "value": 75, "unit": "%"}, {"measurement": "pest or weed control at 62 g/ha", "setting": "[3]; [10]", "value": 90, "unit": "%"}, {"measurement": "pest or weed control at 125 g/ha", "setting": "[3]; [10]", "value": 90, "unit": "%"}, {"measurement": "pest or weed control at 250 g/ha", "setting": "[3]; post-emergence, Postemergence, scale 0 to 100, read-out: Plant response rating, Lambsquarters", "value": 100, "unit": "%"}, {"measurement": "pest or weed control at 31 g/ha", "setting": "[3]; [11]", "value": 0, "unit": "%"}, {"measurement": "pest or weed control at 62 g/ha", "setting": "[3]; [11]", "value": 0, "unit": "%"}, {"measurement": "pest or weed control at 125 g/ha", "setting": "[3]; [12]", "value": 0, "unit": "%"}, {"measurement": "pest or weed control at 250 g/ha", "setting": "[3]; [12]", "value": 80, "unit": "%"}, {"measurement": "pest or weed control at 31 g/ha", "setting": "[4]; post-emergence, Postemergence, read-out: Plant response rating (scale of 0 to 100), Pigweed", "value": 60, "unit": "%"}, {"measurement": "pest or weed control at 62 g/ha", "setting": "[4]; [13]", "value": 65, "unit": "%"}, {"measurement": "pest or weed control at 125 g/ha", "setting": "[4]; [13]", "value": 75, "unit": "%"}, {"measurement": "pest or weed control at 250 g/ha", "setting": "[4]; post-emergence, Postemergence, scale 0 to 100, read-out: Plant response rating, Pigweed", "value": 80, "unit": "%"}, {"measurement": "pest or weed control at 31 g/ha", "setting": "[4]; [14]", "value": 20, "unit": "%"}, {"measurement": "pest or weed control at 62 g/ha", "setting": "[4]; [14]", "value": 50, "unit": "%"}, {"measurement": "pest or weed control at 125 g/ha", "setting": "[4]; [15]", "value": 65, "unit": "%"}, {"measurement": "pest or weed control at 250 g/ha", "setting": "[4]; [15]", "value": 80, "unit": "%"}, {"measurement": "plant injury at 31 g/ha", "setting": "[5]; post-emergence, Postemergence, read-out: Plant response rating (scale of 0 to 100), Soybean", "value": 60, "unit": "%"}, {"measurement": "plant injury at 62 g/ha", "setting": "[5]; [16]", "value": 75, "unit": "%"}, {"measurement": "plant injury at 125 g/ha", "setting": "[5]; [16]", "value": 90, "unit": "%"}, {"measurement": "plant injury at 250 g/ha", "setting": "[5]; post-emergence, Postemergence, scale 0 to 100, read-out: Plant response rating, Soybean", "value": 95, "unit": "%"}, {"measurement": "plant injury at 31 g/ha", "setting": "[5]; [17]", "value": 0, "unit": "%"}, {"measurement": "plant injury at 62 g/ha", "setting": "[5]; [17]", "value": 0, "unit": "%"}, {"measurement": "plant injury at 125 g/ha", "setting": "[5]; [18]", "value": 15, "unit": "%"}, {"measurement": "plant injury at 250 g/ha", "setting": "[5]; [18]", "value": 20, "unit": "%"}, {"measurement": "pest or weed control at 31 g/ha", "setting": "[6]; post-emergence, Postemergence, read-out: Plant response rating (scale of 0 to 100), Velvetleaf", "value": 25, "unit": "%"}, {"measurement": "pest or weed control at 62 g/ha", "setting": "[6]; [19]", "value": 55, "unit": "%"}, {"measurement": "pest or weed control at 125 g/ha", "setting": "[6]; [19]", "value": 55, "unit": "%"}, {"measurement": "pest or weed control at 250 g/ha", "setting": "[6]; post-emergence, Postemergence, scale 0 to 100, read-out: Plant response rating, Velvetleaf", "value": 70, "unit": "%"}, {"measurement": "pest or weed control at 31 g/ha", "setting": "[6]; [20]", "value": 0, "unit": "%"}, {"measurement": "pest or weed control at 62 g/ha", "setting": "[6]; [20]", "value": 0, "unit": "%"}, {"measurement": "pest or weed control at 125 g/ha", "setting": "[6]; [21]", "value": 20, "unit": "%"}, {"measurement": "pest or weed control at 250 g/ha", "setting": "[6]; [21]", "value": 35, "unit": "%"}]}
